Patent US20230024302A1, “2,3,5-TRISUBSTITUTED PYRAZOLO[1,5-A]PYRIMIDINE COMPOUNDS” (Arcus Biosciences, Inc., priority 2019, published 2023)
pIC50: −log10 of the molar value. Read-outs that look alike come from different tables or passages of the source.

Tests used:
[1] = molecular target: T1, PI3Kγ (Homo sapiens, UniProt P48736); test: PI3Kγ cellular assay in THP-1 cells (AKT pS473 AlphaLISA); assay type: cell-based
T1 construct: host or cells: THP-1
Method: Twenty microliters of serum starved THP-1 cells were added to the compound plate in serum free DMEM at a density of 9×10^6 cells per ml. Final assay conditions comprised 1.8×10^5 THP-1 cells per well with test compounds in 2% DMSO across a concentration range from 4 nM to 30 μM. […] Briefly, 10 μL of 4× lysis buffer was added to cells after stimulation. Following 60 min incubation at rt, 10 μL of cell lysate was transferred to a fresh 384-well Opti-plate to which 5 μL of AlphaLisa acceptor beads and 5 μL of AlphaLisa donor beads had been added. […] PI3Kγ activity was evaluated as a correlate of endogenous AKT phosphorylation levels. Percentage maximum activity in each test well was calculated based on DMSO (100% activity) and positive control treated cell wells (0% activity). The potencies (IC50's) of test compounds were determined using a standard 4-parameter fit non-linear regression fit.

[2] = molecular target: T2, PI3Kγ (p120γ) (Homo sapiens, UniProt P48736); test: Inhibition of PI3K kinase activity (ADP Glo), PI3Kγ; conditions: read-out: biochemical potency (PI3Kγ IC50)
T2 construct: purchased Promega V1761
T2 sequence (P48736 whole entry): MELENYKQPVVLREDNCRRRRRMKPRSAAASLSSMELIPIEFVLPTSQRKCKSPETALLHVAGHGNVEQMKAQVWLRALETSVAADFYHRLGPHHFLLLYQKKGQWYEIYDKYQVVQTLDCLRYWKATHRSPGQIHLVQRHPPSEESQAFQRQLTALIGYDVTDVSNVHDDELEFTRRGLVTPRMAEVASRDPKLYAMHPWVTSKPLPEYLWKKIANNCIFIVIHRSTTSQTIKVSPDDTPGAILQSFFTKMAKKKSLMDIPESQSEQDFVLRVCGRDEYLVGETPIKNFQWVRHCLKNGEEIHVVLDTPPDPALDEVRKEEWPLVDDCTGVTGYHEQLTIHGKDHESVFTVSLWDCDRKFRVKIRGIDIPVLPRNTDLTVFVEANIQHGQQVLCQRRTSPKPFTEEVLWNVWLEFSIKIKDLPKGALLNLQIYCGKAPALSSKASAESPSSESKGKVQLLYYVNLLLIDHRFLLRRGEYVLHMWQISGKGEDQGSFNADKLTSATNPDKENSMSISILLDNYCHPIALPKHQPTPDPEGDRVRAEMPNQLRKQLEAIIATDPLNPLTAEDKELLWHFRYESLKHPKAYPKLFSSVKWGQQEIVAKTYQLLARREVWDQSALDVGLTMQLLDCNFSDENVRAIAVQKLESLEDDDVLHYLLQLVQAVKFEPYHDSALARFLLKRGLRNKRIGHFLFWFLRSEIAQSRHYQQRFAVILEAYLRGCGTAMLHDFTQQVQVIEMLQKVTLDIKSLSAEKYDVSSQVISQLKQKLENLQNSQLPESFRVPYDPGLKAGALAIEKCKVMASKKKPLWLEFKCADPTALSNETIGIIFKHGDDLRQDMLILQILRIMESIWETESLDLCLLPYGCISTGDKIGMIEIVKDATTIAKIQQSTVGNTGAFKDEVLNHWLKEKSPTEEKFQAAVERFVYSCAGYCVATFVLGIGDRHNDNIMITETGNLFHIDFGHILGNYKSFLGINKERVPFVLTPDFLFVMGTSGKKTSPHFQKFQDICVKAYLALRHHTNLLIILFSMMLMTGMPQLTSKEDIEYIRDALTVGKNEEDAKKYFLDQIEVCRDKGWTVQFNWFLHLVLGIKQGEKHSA
Method: Compounds were evaluated to determine the potency with which they inhibited the kinase activity of the Class I PI3K subunits p110α/p85α (Promega, Cat #V1721), p110β/p85α (Promega, Cat #V1751), p120γ (Promega, Cat #V1761) and p110δ/p85α (Promega, Cat #V1771). Activity was determined as a function of ADP (adenosine diphosphate) generated from ATP consumed during the phosphorylation of Phosphatidylinositol 4,5-bisphosphate (PIP2) (Promega, Cat #V1701) to yield Phosphatidylinositol (3,4,5)-trisphosphate (PIP3). ADP levels in the assay mixture at the end of the reaction were quantitated using ADP Glo (Promega, Cat #V9103) according to the manufacturer's recommended protocol.
Enzyme was prepared for each of the PI3K subunits in 100 mM HEPES, pH 7.4, 100 mM NaCl, 6 mM MgCl2 and 0.05% BSA. p110α/p85α was prepared at 2 nM (2×), p110β/p85α was prepared at 7 nM (2×), p120γ was prepared at 8 nM (2×) and p110δ/p85α was prepared at 2 nM (2×). Five microliters of 2× enzyme dilution of each PI3K subunit were added to a 384-well white Opti-plates pre-dispensed with compound and allowed to incubate for 1 h at rt. A substrate mix containing 0.1 mg/ml (2×) of PIP2 and 50 μM (2×) ATP (Promega, Cat #V915) was prepared in 25 mM HEPES and 0.5 mM EGTA. Reactions were initiated by addition of 5 μl of 2× substrate mix to each well of the plates containing various PI3K isoforms and allowed to proceed for 60 min at rt. Ten microliters of ADP Glo reagent 1 were added to the wells of each plate and allowed to incubate at rt for 45 min according to the manufacturer's directions. Following incubation, 20 μl of ADP Glo reagent 2 was added to each plate and allowed to incubate for an additional 45 min. Luminescent signal, generated by ADP Glo, was quantified by reading on a Perkin Elmer Envision multimode reader. Compound potencies (IC50's) were determined using a standard 4-parameter fit non-linear regression fit.

[3] = Table 1, rhMCP-1 stimulated AKT pS473, read-out: cellular potency (PI3Kγ IC50)
[4] = Table 2, rhMCP-1 stimulated AKT pS473, read-out: cellular potency (PI3Kγ IC50)

T1 sequence (P48736 whole entry): as above

CNS(=O)(=O)c1cc(-c2ccn3nc(N)c(C(=O)N[C@H]4C[C@H](O)C4)c3n2)cc2c1C(=O)N([C@@H](C)C1CC1)C2 [Example 141, 2-Amino-5-{2-[(1S)-1-cyclopropylethyl]-7-(methylsulfamoyl)-1-oxo-2,3-dihydro-1H-isoindol-5-yl}-N-[trans-3-hydroxycyclobutyl]pyrazolo[1,5-a]pyrimidine-3-carboxamide]
pIC50 [1, 3]: > 7.00 | pIC50 ([2]; Table 1, p120γ): > 7.00

C[C@@H](C1CC1)N1Cc2cc(-c3ccn4nc(N)c(C(=O)Nc5ccnc(CO)c5)c4n3)cc(NS(C)(=O)=O)c2C1=O [Example 379]
pIC50 ([1]; AKT pS473, read-out: cellular potency (PI3Kγ IC50)): < 6.00 | pIC50 [2]: > 7.00

Cc1cc(-c2ccn3nc(N)c(C(=O)NC4CNC4)c3n2)cc2c1C(=O)N([C@@H](C)C1CC1)C2 [Example 266]
pIC50 [1, 4]: < 6.00 | pIC50 ([2]; Table 2, p120γ): > 7.00

CCNS(=O)(=O)c1cc(-c2ccn3nc(N)c(C(=O)NC4CC4)c3n2)cc2c1C(=O)N([C@@H](C)C1CC1)C2 [Example 143, 2-Amino-N-cyclopropyl-5-{2-[(1S)-1-cyclopropylethyl]-7-(ethylsulfamoyl)-1-oxo-2,3-dihydro-1H-isoindol-5-yl}pyrazolo[1,5-a]pyrimidine-3-carboxamide]
pIC50 [1, 3]: > 7.00 | pIC50 ([2]; Table 1, p120γ): > 7.00

C[C@H](N1Cc2cc(-c3ccn4nc(N)c(C(=O)N[C@H]5C[C@H](O)C5)c4n3)cc(NS(C)(=O)=O)c2C1=O)C(F)(F)F [Example 121, 2-Amino-5-{7-methanesulfonamido-1-oxo-2-[(2S)-1,1,1-trifluoropropan-2-yl]-2,3-dihydro-1H-isoindol-5-yl}-N-[trans-3-hydroxycyclobutyl]pyrazolo[1,5-a]pyrimidine-3-carboxamide]
pIC50 [1, 3]: > 7.00 | pIC50 ([2]; Table 1, p120γ): > 7.00

C[C@@H](C1CC1)N1Cc2cc(-c3ccn4nc(N)c(C(=O)NCCCO)c4n3)cc(C(F)(F)F)c2C1=O [Example 52, 2-[(S)-1-Cyclopropylethyl]-5-{2-amino-3-[(3-hydroxypropylamino)carbonyl]-1,4,7a-triaza-5-indenyl}-7-(trifluoromethyl)-1-isoindolinone]
pIC50 [1, 3]: > 7.00 | pIC50 ([2]; Table 1, p120γ): > 7.00

C[C@@H](C1CC1)N1Cc2cc(-c3ccn4nc(N)c(C(=O)NC5CC5)c4n3)cc(N3CC[C@@H](O)C3)c2C1=O [Example 150, 2-Amino-N-cyclopropyl-5-{2-[(1S)-1-cyclopropylethyl]-7-[(3R)-3-hydroxypyrrolidin-1-yl]-1-oxo-2,3-dihydro-1H-isoindol-5-yl}pyrazolo[1,5-a]pyrimidine-3-carboxamide]
pIC50 [1, 3]: > 7.00 | pIC50 ([2]; Table 1, p120γ): > 7.00

C[C@@H](C1CC1)N1Cc2cc(-c3ccn4nc(N)c(C(=O)N[C@@H]5COC[C@H]5O)c4n3)cc(OC(F)(F)F)c2C1=O [Example 38, 2-Amino-5-{2-[(1S)-1-cyclopropylethyl]-1-oxo-7-(trifluoromethoxy)-2,3-dihydro-1H-isoindol-5-yl}-N-[(3R,4S)-4-hydroxyoxolan-3-yl]pyrazolo[1,5-a]pyrimidine-3-carboxamide]
pIC50 [1, 3]: > 7.00 | pIC50 ([2]; Table 1, p120γ): > 7.00

C[C@@H](C1CC1)N1Cc2cc(-c3ccn4nc(N)c(C(=O)N[C@H]5CNC[C@H]5O)c4n3)cc(OC(F)(F)F)c2C1=O [Example 417]
pIC50 ([1]; Table 6, rhMCP-1 stimulated AKT pS473, read-out: cellular potency (PI3Kγ IC50)): < 6.00 | pIC50 ([2]; Table 6, p120γ): > 7.00

C[C@@H](C1CC1)N1Cc2cc(-c3ccn4nc(N)c(C(=O)NC5CC5)c4n3)cc(O[C@H]3CCOC3)c2C1=O [Example 146, 2-Amino-N-cyclopropyl-5-{2-[(1S)-1-cyclopropylethyl]-1-oxo-7-[(3S)-oxolan-3-yloxy]-2,3-dihydro-1H-isoindol-5-yl}pyrazolo[1,5-a]pyrimidine-3-carboxamide]
pIC50 [1, 3]: > 7.00 | pIC50 ([2]; Table 1, p120γ): > 7.00

C[C@@H](C1CC1)N1Cc2cc(-c3ccn4nc(N)c(C(=O)N[C@H]5CC[C@](O)(C(F)(F)F)CC5)c4n3)cc(C(F)(F)F)c2C1=O [Example 55, 2-[(S)-1-Cyclopropylethyl]-5-(2-amino-3-{[cis-4-hydroxy-4-(trifluoromethyl)cyclohexylamino]carbonyl}-1,4,7a-triaza-5-indenyl)-7-(trifluoromethyl)-1-isoindolinone]
pIC50 [1, 3]: > 7.00 | pIC50 ([2]; Table 1, p120γ): > 7.00

C[C@H](CO)NC(=O)c1c(N)nn2ccc(-c3cc4c(c(C(F)(F)F)c3)C(=O)N([C@@H](C)C3CC3)C4)nc12 [Example 50, 5-(3-{[(R)-2-Hydroxy-1-methylethylamino]carbonyl}-2-amino-1,4,7a-triaza-5-indenyl)-2-[(S)-1-cyclopropylethyl]-7-(trifluoromethyl)-1-isoindolinone]
pIC50 [1, 3]: > 7.00 | pIC50 ([2]; Table 1, p120γ): > 7.00

CCn1cc(NC(=O)c2c(N)nn3ccc(-c4cc(C)c5c(c4)CN([C@@H](C)C4CC4)C5=O)nc23)cn1 [Example 295]
pIC50 [1, 4]: 6.00 to 7.00 | pIC50 ([2]; Table 2, p120γ): > 7.00

CCS(=O)(=O)Nc1cc(-c2ccn3nc(N)c(C(=O)N[C@H]4C[C@](C)(O)C4)c3n2)cc2c1C(=O)N([C@@H](C)C1CC1)C2 [Example 111, 2-Amino-5-{2-[(1S)-1-cyclopropylethyl]-7-ethanesulfonamido-1-oxo-2,3-dihydro-1H-isoindol-5-yl}-N-[trans-3-hydroxy-3-methylcyclobutyl]pyrazolo[1,5-a]pyrimidine-3-carboxamide]
pIC50 [1, 3]: > 7.00 | pIC50 ([2]; Table 1, p120γ): > 7.00

C[C@@H](C1CC1)N1Cc2cc(-c3ccn4nc(N)c(C(N)=O)c4n3)cc(OC(F)(F)F)c2C1=O [Example 39, 5-{2-[(S)-1-Cyclopropylethyl]-7-trifluoromethoxy-5-isoindolinoyl}-2-amino-1,4,7a-triaza-3-indenecarboxamide]
pIC50 [1, 3]: > 7.00 | pIC50 ([2]; Table 1, p120γ): > 7.00

C[C@@H](C1CC1)N1Cc2cc(-c3ccn4nc(N)c(C(=O)NC5CC5)c4n3)cc(S(=O)(=O)C3CCCCC3)c2C1=O [Example 138, 2-Amino-5-[7-(cyclohexanesulfonyl)-2-[(1S)-1-cyclopropylethyl]-1-oxo-2,3-dihydro-1H-isoindol-5-yl]-N-cyclopropylpyrazolo[1,5-a]pyrimidine-3-carboxamide]
pIC50 [1, 3]: > 7.00 | pIC50 ([2]; Table 1, p120γ): > 7.00

Cc1cc(-c2ccn3nc(N)c(C(=O)NCC(C)(C)O)c3n2)cc2c1C(=O)N([C@@H](C)C1CC1)C2 [Example 203]
pIC50 [1, 4]: 6.00 to 7.00 | pIC50 ([2]; Table 2, p120γ): > 7.00

CCc1cc(-c2ccn3nc(N)c(C(=O)N[C@@H](CO)C4CC4)c3n2)cc2c1C(=O)N([C@@H](C)C1CC1)C2 [Example 168, 2-Amino-N-[(1R)-1-cyclopropyl-2-hydroxyethyl]-5-{2-[(1S)-1-cyclopropylethyl]-7-ethyl-1-oxo-2,3-dihydro-1H-isoindol-5-yl}pyrazolo[1,5-a]pyrimidine-3-carboxamide]
pIC50 [1, 3]: > 7.00 | pIC50 ([2]; Table 1, p120γ): > 7.00

C[C@@H](C1CC1)N1Cc2cc(-c3ccn4nc(N)c(C(=O)Nc5cnn(CC(F)(F)F)c5)c4n3)cc(NS(C)(=O)=O)c2C1=O [Example 106, 2-Amino-5-{2-[(1S)-1-cyclopropylethyl]-7-methanesulfonamido-1-oxo-2,3-dihydro-1H-isoindol-5-yl}-N-[1-(2,2,2-trifluoroethyl)-1H-pyrazol-4-yl]pyrazolo[1,5-a]pyrimidine-3-carboxamide]
pIC50 [1, 3]: > 7.00 | pIC50 ([2]; Table 1, p120γ): > 7.00

C[C@@H](C1CC1)N1Cc2cc(-c3ccn4nc(N)c(C(=O)N[C@H]5CC[C@H](N)CC5)c4n3)cc(OC(F)(F)F)c2C1=O [Example 31, 2-Amino-5-{2-[(1S)-1-cyclopropylethyl]-1-oxo-7-(trifluoromethoxy)-2,3-dihydro-1H-isoindol-5-yl}-N-[trans-4-aminocyclohexyl]pyrazolo[1,5-a]pyrimidine-3-carboxamide]
pIC50 [1, 3]: > 7.00 | pIC50 ([2]; Table 1, p120γ): > 7.00

Cc1cc(-c2ccn3nc(N)c(C(=O)N[C@@H](C)c4cccnc4)c3n2)cc2c1C(=O)N([C@@H](C)C1CC1)C2 [Example 212]
pIC50 [1, 4]: 6.00 to 7.00 | pIC50 ([2]; Table 2, p120γ): > 7.00
